Measured values taken from the CheMixHub ionic liquid set.
“And” between values parts separate entries of the source, which are not always exact repeats. Equal values may be shown once.

Test: xn = mol fraction of the nth substance listed

C[S+](C)C.O=S(=O)([N-]S(=O)(=O)C(F)(F)F)C(F)(F)F + CC1COC(=O)O1
101 kPa
Conditions	electrical conductivity [S/m]
283.15 K, x2 = 0.76	0.862
298.15 K, x1 = 0.0005	0.035
298.15 K, x1 = 0.0008	0.044
298.15 K, x2 = 0.6202	1.29
333.15 K, x2 = 0.76	2.54

C[S+](C)C.O=S(=O)([N-]S(=O)(=O)C(F)(F)F)C(F)(F)F + CC#N
101 kPa
Conditions	electrical conductivity
264.85 K, x2 = 0.87	3.61 S/m
273.15 K, x2 = 0.87	4.06 S/m
298.15 K, x1 = 0.0001	0.027 S/m and 0.059 S/m
298.15 K, x1 = 0.0005	0.208 S/m
323.15 K, x2 = 0.87	6.94 S/m

CC(=O)[O-].CCCC[N+](CCCC)(CCCC)CCCC + CC(=O)O + O
303.15 K, 100 kPa
Conditions	viscosity [mPa·s]
x2 = 0, x3 = 0.0263	680
x2 = 0.0971, x3 = 0.0291	460
x2 = 0.194, x3 = 0.0301	297
x2 = 0.3213, x3 = 0.0263	169
x2 = 0.4883, x3 = 0.0234	83
x2 = 0.6588, x3 = 0.0167	41
x2 = 0.7897, x3 = 0.0128	25
x2 = 0.8911, x3 = 0.0099	19

NCCCNCCCN + CC(=O)[O-].CCCC[n+]1ccn(C)c1 + O
viscosity [mPa·s], 101 kPa
Conditions	298.15 K	303.15 K	308.15 K	313.15 K	318.15 K	323.15 K	328.15 K	333.15 K
x2 = 0.03479, x1 = 0.0177	3.36	3.32	3.14	2.86	2.61	2.28	1.96	1.77
x2 = 0.03897, x1 = 0.01333	3.54	3.51	3.28	2.95	2.66	2.52	2.34	2.15
x2 = 0.04311, x1 = 0.00893	3.88	3.76	3.32	2.96	2.74	2.62	2.37	2.24

CC(C)=O + CC(=O)[O-].CC[NH2+]CC
Conditions	viscosity [mPa·s]
298.15 K, 101 kPa, x2 = 0	0.309

CCCCCC[n+]1ccn(C)c1.F[B-](F)(F)F + CC(C)(C)O
298.15 K, 101 kPa
Conditions	viscosity [mPa·s]
x2 = 0.3074	69.2
x2 = 0.8007	13.92
